Patent US11572402B2, “Method for promoting diversification of antibody variable region” (Chiome Bioscience Inc., priority 2017, dated 2023)

Test system: CL18_M− cell line
Test: Light chain gene conversion (GC) analysis according to Reversion assay
Assay type: cell-based, chicken
Conditions: one and two weeks of culture, PI3Kα Inhibitor 2 at 200 nM, versus CAL-101, CZC 24832, AS 604850 and CS(−)
Description: A frozen stock of the CL18_M− cell line (3.0×10^6 cells) was awaken with 10 mL of CS(−) medium, using a 25 cm^2 Flask, and the cells were then cultured in a CO2 incubator (39.5° C., 5% CO2). On the following day, 2 mL each of a CS(−) medium, to which each drug had been added, was added into each well of a 24 deep well plate (ThermoFisher Scientific, 95040480), and the cells were then seeded thereon to a cell density of 6.0×10^4 cells/mL (wherein the cell concentration and the survival rate were measured using CASY cell counter). After individual samples had been cultured for 2 days, the samples were subcultured under the same conditions to result in a cell density of 1.0×10^4 cells/mL. […] Thereafter, a plot, in which the vertical axis indicated FITC (Goat anti-Chicken IgM Antibody FITC Conjugated) and the longitudinal axis indicated PE (none), was developed, and the percentage of PE-_FITC+(cIgM+) cells was then calculated.
Meanwhile, after completion of the culture for 7 days, individual samples were subcultured under the same conditions to result in a cell density of 6.0×10^4 cells/mL. […] At the time point of Day 14 of the culture, individual samples were measured using FACS Canto II Flow Cytometer, as with the measurement on Day 7. […]

With `Cc1nc(NC(=O)N2CCC[C@H]2C(N)=O)sc1-c1csc(C(C)(C)C)n1` [A66] the “Reversion activity (percentage of IgM expression-positive cells)” value was “higher Reversion activity”.
